Test results published in US12685777B2, “Compositions, systems, and methods for modulating a target gene” (The Board of Trustees of the Leland Stanford Junior …, priority 2022, dated 2026).
Entries after “also recorded” stand apart in the source; their conditions may differ. Where two headings read alike, the source gives them in different places. Values belong to the molecule of their own block, whether it stands above or below them.

Assays:
[1] = system: NCI-H1105; experiment: Dose response on viability of small cell lung cancer line, resazurin assay; assay type: cell-based; details: NCI-H1105, 72 h treatment
Description: (§1) IC50 of JWZ-7-7, BI-3812, JQ1, and combinations were calculated based on a dose response curve on three small cell lung cancer lines (FIG. 5). The dose response curve on viability was performed in technical replicates and biological triplicate after treating cells for 72 hours across a broad range of concentrations via serial dilutions. Viable cells were measured after treatment via a resazurin assay. The signal for viable assays was normalized to the DMSO treated negative control. A four-parameter non-linear fit was performed to fit a curve to calculate the IC50 for each of the cell lines. The table below describes the calculated IC50 across JWZ-7-7, JQ1, BI-3812 and combination of JQ1 and BI-3812 after 72 h treatment in technical replicates and biological triplicates.

[2] = system: NCI-H2196; experiment: as above; assay type: cell-based; details: NCI-H2196, 72 h treatment
Description: as §1

[3] = system: DMS-79; experiment: as above; assay type: cell-based; details: DMS-79, 72 h treatment
Description: as §1

[4] = system: human prostatic cancer cell lines; experiment: Viable cell counts of androgen-dependent prostate cancer cell lines after 72 hours; assay type: cell-based; details: 72 hours of exposure, read-out: IC50 of killing of prostate cancer cell lines
Description: The AR-BCL6 TCIPs synthesized in I above were tested for their ability to kill prostate cancer cell lines as an indication of their ability to treat human prostatic cancer. AR-TCIPs rapidly and robustly kill human prostatic cancer cell lines. Four different cell lines were used that are androgen-dependent. The drugs were added at the indicated concentrations and viable cell counts determined after 72 hours of exposure. […] The EC50 is shown in each case.

[5] = biological target: T1, AR and BCL6 (Homo sapiens, UniProt P10275+P41182); experiment: AR-BCL6 nanoBRET assay in HEK293 cells; assay type: cell-based; details: labeled AR and BCL6
T1 construct: HaloTag; NanoLuc; expressed in transfected cells; host or cells: HEK293
Text: To ascertain activity of TCIP RCS-02-063 as schematically illustrated in FIG. 1, w a BRET assay was developed to detect in vivo target engagement and ternary complex formation. FIG. 25 (Panels A-B) provides an illustration of the assay as wells the results obtained therefrom. […] A BRET signal at 618 nm was then detected after excitation at 460 nm of HEK293 cells infected with the labeled fusion proteins.

[6] = system: SUDHL5; experiment: Killing of lymphoma cell lines by CDK9-BCL6 TCIPs, death recorded 72 hours later; assay type: cell-based, human
Description: FIG. 15 CDK9-BCL6 TCIPs Effectively Kill Human Lymphomas. The molecules shown in FIG. 14 were used at the indicated concentrations to treat different lymphoma cell lines, such as SUDHL5 shown here. Death was recorded 72 hours later.

[7] = biological target: T2, CDK9 and BCL6 (Homo sapiens, UniProt P41182+P50750); experiment: Competition of TCIP-induced cell death with BCL6 inhibitor; assay type: cell-based; details: cell death recorded 72 hours after adding
T2 construct: endogenous in cells

[8] = system: DLBCL cell lines; experiment: Chemical rescue: competitive titration of JQ1 or Bl3812 against the TCIP; assay type: cell-based; details: titrated against constant JWZ-7-7 / TCIP1
[9] = system: MYC, FOXO3, p21, BCL6, BRD4 protein levels in KARPAS422 and SUDHL5; details: known for BET/BRD4 inhibitors; cited from earlier work
[10] = system: MYC, FOXO3, p21, BCL6, BRD4 protein levels in KARPAS422 and SUDHL5; experiment: Western blots of target proteins in DLBCL cells; assay type: cell-based, human; details: titrated against constant 10 nM TCIP1, 8 hours
Description: Cells were plated at 1 M/mL and treated with drug at indicated timepoints and doses. 2 M Cells were harvested on ice in RIPA buffer (50 mM Tris-HCl pH 8, 150 mM NaCl, 1% NP-40, 0.1% DOC, 1% SDS, protease inhibitor cocktail (homemade), 1 mM DTT) and 1:200 benzonase (Sigma #E1014) was added and incubated for 20 minutes. After 10 minute centrifugation at 14,000 g and 4° C., the supernatant was collected and protein concentration was measured by Bradford.
Because a high percentage of the TCIP1-treated cells contain fragmented DNA by TUNEL assay at 24 hours (FIG. 31, Panel E), many of the “reduced genes” could reflect DNA fragmentation as part of the apoptotic process and digestion to mononucleosomes. Among the group of genes whose expression was most reduced were MYC and its targets (FIGS. 33B, 36C). The top 100 most TCIP1-reduced genes were examined using ChIP-seq data of human transcription factors in blood cancer cell lines, and found the promoters of TCIP1-inhibited genes highly enriched for MYC binding in multiple datasets (FIG. 33, Panel C). This is significant since many DLBCLs are considered to be MYC-dependent.
Signaling via NF-kB is known to be repressed by BCL6.

[11] = biological target: T3, bromodomain 1 of BRD4 and BTB domain of BCL6 (Homo sapiens, UniProt O60885+P41182, C67R/C84N/C8Q); experiment: TR-FRET assay of ternary complex formation; assay type: binding; details: 1 hr at room temperature, 520 nm/490 nm ratio
T3 construct: contains amino acids 5-129 with three mutations, C8Q, C67R, C84N
Description: Reaction was incubated for 1 hr at room temperature, and subsequently the fluorescence at 520 nm and 490 nm was measured. The 520 nm/490 nm ratio is plotted respective to DMSO control. The two lower curves are performed by addition of Neg1 and Neg2 instead of JWZ-7-7. […] The structure of JWZ-7-7 is provided in FIG. 2 and the structures of Neg1 and Neg2 are provided below:
Each reaction contained 100 nM BRD4^BD1, 100 nM BCL6BTB-Avi-Biot, 20 nM Streptavidin-FITC (Thermo #SA1001), and 1:400 anti-6×His terbium antibody (PerkinElmer #61H12TLF) in 10 μL of buffer containing 20 mM HEPES, 150 mM NaCl, 0.1% BSA, 0.1% NP-40, and 1 mM TCEP in a 384-well plate. Protein was incubated with drug digitally dispensed (Tecan D300e) for 1 hour in the dark at room temperature before excitation at 337 nm and measurement of emission at 520 nm (FITC) and 490 nm (terbium) with a PHERAstar FS plate reader (BMG Labtech). The ratio of signal at 520 nm to 490 nm was calculated and normalized to DMSO-treated conditions, and plotted.

T1 sequence (P10275 whole entry, other chains not shown): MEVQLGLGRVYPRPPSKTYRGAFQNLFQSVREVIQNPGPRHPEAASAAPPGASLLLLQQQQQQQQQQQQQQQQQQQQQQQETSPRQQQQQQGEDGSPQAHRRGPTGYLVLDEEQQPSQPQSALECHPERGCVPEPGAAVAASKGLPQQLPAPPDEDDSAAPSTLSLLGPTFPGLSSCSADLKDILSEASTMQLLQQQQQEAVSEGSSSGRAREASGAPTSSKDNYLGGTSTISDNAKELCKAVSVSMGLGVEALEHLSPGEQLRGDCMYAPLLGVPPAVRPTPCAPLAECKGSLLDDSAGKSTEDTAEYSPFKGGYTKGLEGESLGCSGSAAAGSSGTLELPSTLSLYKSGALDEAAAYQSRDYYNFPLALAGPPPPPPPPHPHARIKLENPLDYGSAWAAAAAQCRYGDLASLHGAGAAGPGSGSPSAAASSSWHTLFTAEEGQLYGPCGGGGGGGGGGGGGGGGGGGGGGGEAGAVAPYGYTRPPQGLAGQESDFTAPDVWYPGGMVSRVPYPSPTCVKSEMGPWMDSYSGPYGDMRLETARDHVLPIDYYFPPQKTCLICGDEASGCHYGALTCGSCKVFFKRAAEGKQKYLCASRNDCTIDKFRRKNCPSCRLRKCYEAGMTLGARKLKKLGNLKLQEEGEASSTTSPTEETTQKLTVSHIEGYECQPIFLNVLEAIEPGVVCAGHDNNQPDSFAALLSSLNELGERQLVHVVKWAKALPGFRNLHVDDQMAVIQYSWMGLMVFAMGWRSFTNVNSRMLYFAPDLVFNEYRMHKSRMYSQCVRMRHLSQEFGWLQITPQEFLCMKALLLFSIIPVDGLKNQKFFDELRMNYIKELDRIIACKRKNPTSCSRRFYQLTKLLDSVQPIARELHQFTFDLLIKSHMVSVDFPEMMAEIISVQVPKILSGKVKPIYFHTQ

IC50 ([1]; read-out: IC50): 4.3 µM | IC50 ([2]; Homo sapiens): 3.5 µM | IC50 ([3]; Homo sapiens): 6.1 µM
SMILES: CNC(=O)COc1cc2cc(Nc3nc(N4CCC(C(=O)N(C)C)CC4)ncc3Cl)cc(OC)c2n(C)c1=O [BI-3812]

SMILES: CNC(=O)COc1cc2cc(Nc3nc(N4CCC(C(=O)NCCCNC(=O)CO/N=C5\CC[C@H]6[C@@H]7CC[C@H]8CC(=O)CC[C@]8(C)[C@H]7CC[C@]56C)CC4)ncc3Cl)cc(OC)c2n(C)c1=O [RCS-02-063]
IC50 [4]: ~1 µM | IC50 ([4]; Homo sapiens, 72 h): ~1.5 µM | BRET signal (target engagement) [5]: robust BRET signal

SMILES: CNC(=O)COc1cc2cc(Nc3nc(N4CCC(C(=O)NCCCCCCC(=O)N5CCC(C(=O)Nc6ncc(SCc7ncc(C(C)(C)C)o7)s6)CC5)CC4)ncc3Cl)cc(OC)c2n(C)c1=O [BAK_04_21]
Killing of lymphoma cells relative to component and competitor molecules [6]: more effective at killing lymphoma cells than component molecules and competitor molecules

SMILES: CNC(=O)COc1cc2cc(Nc3nc(N4CCC(C(=O)NCCCCCCC(=O)N5CCC(C(=O)Nc6ncc(SCc7ncc(C(C)(C)C)o7)s6)CC5)CC4)ncc3Cl)cc(OC)c2n(C)c1=O [BAK04-21]
Ternary complex in cells, competition with Bl3812 [7]: forms a ternary complex in cells that can be competed with the BCL6 inhibitor

SMILES: Cc1sc2c(c1C)C(c1ccc(Cl)cc1)=N[C@@H](CC(=O)OC(C)(C)C)c1nnc(C)n1-2 [JQ1]
Rescue of TCIP-induced cell death [8]: rescue cell death; also recorded: prevented death by TCIP1 | IC50 [1]: Unstable | IC50 [2]: 14.4 µM | IC50 [3]: 10.1 µM | Drug level that reduces expression of MYC [9]: 500 nM

SMILES: CNC(=O)COc1cc2cc(Nc3nc(N4CCC(C(=O)N(C)C)CC4)ncc3Cl)cc(OC)c2n(C)c1=O [Bl3812]
Rescue of TCIP-induced cell death [8]: rescue cell death; also recorded: prevented death by TCIP1 | Reversal of TCIP1-induced protein changes [10]: reversed p21 upregulation, FOXO3 upregulation, and MYC downregulation

Ternary complex formation (TR-FRET) [11]: showed ternary complex formation
SMILES: CNC(=O)COc1cc2cc(Nc3nc(N4CCC(C(=O)NCCCCCCNC(=O)C[C@@H]5N=C(c6ccc(Cl)cc6)c6c(sc(C)c6C)-n6c(C)nnc65)CC4)ncc3Cl)cc(OC)c2n(C)c1=O [JWZ-7-6, (S)-1-(5-chloro-4-((8-methoxy-1-methyl-3-(2-(methylamino)-2-oxoethoxy)-2-oxo-1,2-dihydroquinolin-6-yl)amino)pyrimidin-2-yl)-N-(6-(2-(4-(4-chlorophenyl)-2,3,9-trimethyl-6H-thieno[3,2-f][1,2,4]triazolo[4,3-a][1,4]diazepin-6-yl)acetamido)hexyl)piperidine-4-carboxamide]

Ternary complex formation (TR-FRET) [11]: showed ternary complex formation
SMILES: CNC(=O)COc1cc2cc(Nc3nc(N4CCC(C(=O)NCCN5CCN(CCNC(=O)C[C@@H]6N=C(c7ccc(Cl)cc7)c7c(sc(C)c7C)-n7c(C)nnc76)CC5)CC4)ncc3Cl)cc(OC)c2n(C)c1=O [JWZ-7-13, (S)-1-(5-chloro-4-((8-methoxy-1-methyl-3-(2-(methylamino)-2-oxoethoxy)-2-oxo-1,2-dihydroquinolin-6-yl)amino)pyrimidin-2-yl)-N-(2-(4-(2-(2-(4-(4-chlorophenyl)-2,3,9-trimethyl-6H-thieno[3,2-f][1,2,4]triazolo[4,3-a][1,4]diazepin-6-yl)acetamido)ethyl)piperazin-1-yl)ethyl)piperidine-4-carboxamide]

Ternary complex formation (TR-FRET) [11]: showed ternary complex formation
SMILES: CNC(=O)COc1cc2cc(Nc3nc(N4CCC(C(=O)NCCCN(C)CCCNC(=O)C[C@@H]5N=C(c6ccc(Cl)cc6)c6c(sc(C)c6C)-n6c(C)nnc65)CC4)ncc3Cl)cc(OC)c2n(C)c1=O [JWZ-7-100, (S)-1-(5-chloro-4-((8-methoxy-1-methyl-3-(2-(methylamino)-2-oxoethoxy)-2-oxo-1,2-dihydroquinolin-6-yl)amino)pyrimidin-2-yl)-N-(3-((3-(2-(4-(4-chlorophenyl)-2,3,9-trimethyl-6H-thieno[3,2-f][1,2,4]triazolo[4,3-a][1,4]diazepin-6-yl)acetamido)propyl)(methyl)amino)propyl)piperidine-4-carboxamide]

Ternary complex formation (TR-FRET) [11]: showed ternary complex formation
SMILES: CNC(=O)COc1cc2cc(Nc3nc(N4CCC(C(=O)NCCCOCCCNC(=O)C[C@@H]5N=C(c6ccc(Cl)cc6)c6c(sc(C)c6C)-n6c(C)nnc65)CC4)ncc3Cl)cc(OC)c2n(C)c1=O [JWZ-7-97, (S)-1-(5-chloro-4-((8-methoxy-1-methyl-3-(2-(methylamino)-2-oxoethoxy)-2-oxo-1,2-dihydroquinolin-6-yl)amino)pyrimidin-2-yl)-N-(3-(3-(2-(4-(4-chlorophenyl)-2,3,9-trimethyl-6H-thieno[3,2-f][1,2,4]triazolo[4,3-a][1,4]diazepin-6-yl)acetamido)propoxy)propyl)piperidine-4-carboxamide]
